{
  "source": "paper PMC11249239",
  "about": "(PLOS ONE, 2024)",
  "key": {"[1]": {"test_system": "pan-HDACs (HeLa cell extract)", "experiment": "In vitro HDAC enzyme inhibition, HeLa cell nuclear extract (Fluor de Lys)", "type": "biochemical", "details": "± margin of error of 95% confidence interval", "text": "(§1) In vitro HDAC enzyme inhibition assays utilized HeLa cell extract for pan-HDACs with the substrate Fluor-Lys following the manufacturer’s protocol (BIOMOL/ENZO, Plymouth Meeting, PA). For isoform assays, purified HDAC1, HDAC3, and HDAC6 recombinant proteins produced by expressing epitope-tagged full-length proteins in the sf9 baculovirus expression vector system were purchased from PBS Bioscience (San Diego, CA). […] The reaction commenced with the addition of HDAC substrate at room temperature and proceeded for 30 minutes. Termination of the reaction was achieved by adding 50 μL of Fluor de Lys (TM) Assay Developer. The fluorophore was excited at 360 nm and emitted light at 460 nm. Relative fluorescence was measured using a FlexStation II plate reader (Molecular Devices, Sunnyvale, CA)."}, "HDAC3": {"target": "T1, HDAC3 (Homo sapiens, UniProt O15379)", "T1 construct": "purchased PBS Bioscience [sic] (San Diego, CA); host or cells: Sf9 insect cells / baculovirus", "T1 sequence (O15379 whole entry, canonical isoform)": "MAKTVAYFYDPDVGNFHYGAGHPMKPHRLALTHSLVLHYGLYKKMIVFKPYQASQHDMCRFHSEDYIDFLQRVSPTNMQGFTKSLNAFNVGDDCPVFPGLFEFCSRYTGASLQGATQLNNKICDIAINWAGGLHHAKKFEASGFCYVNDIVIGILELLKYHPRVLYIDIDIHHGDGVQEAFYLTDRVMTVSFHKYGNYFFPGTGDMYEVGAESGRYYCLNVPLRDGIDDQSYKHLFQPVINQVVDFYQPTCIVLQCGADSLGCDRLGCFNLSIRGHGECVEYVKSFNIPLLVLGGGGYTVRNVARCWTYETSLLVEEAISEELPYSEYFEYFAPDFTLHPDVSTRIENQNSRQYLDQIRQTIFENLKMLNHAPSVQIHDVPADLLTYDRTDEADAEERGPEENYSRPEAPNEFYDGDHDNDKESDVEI", "T1 sequence (Q9Y618 395-489 partner limits assumed)": "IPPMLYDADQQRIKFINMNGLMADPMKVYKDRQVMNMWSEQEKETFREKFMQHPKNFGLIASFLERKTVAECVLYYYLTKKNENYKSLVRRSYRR", "experiment": "In vitro HDAC isoform inhibition, purified recombinant HDAC3", "type": "biochemical", "details": "purified recombinant protein; ± margin of error of 95% confidence interval; read-out: IC50 HDAC inhibition activity in vitro, HDAC 3", "text": "as §1"}, "HDAC6": {"target": "T2, HDAC6 (Homo sapiens, UniProt Q9UBN7)", "T2 construct": "purchased PBS Bioscience [sic] (San Diego, CA); host or cells: Sf9 insect cells / baculovirus", "T2 sequence (Q9UBN7 1-1215)": "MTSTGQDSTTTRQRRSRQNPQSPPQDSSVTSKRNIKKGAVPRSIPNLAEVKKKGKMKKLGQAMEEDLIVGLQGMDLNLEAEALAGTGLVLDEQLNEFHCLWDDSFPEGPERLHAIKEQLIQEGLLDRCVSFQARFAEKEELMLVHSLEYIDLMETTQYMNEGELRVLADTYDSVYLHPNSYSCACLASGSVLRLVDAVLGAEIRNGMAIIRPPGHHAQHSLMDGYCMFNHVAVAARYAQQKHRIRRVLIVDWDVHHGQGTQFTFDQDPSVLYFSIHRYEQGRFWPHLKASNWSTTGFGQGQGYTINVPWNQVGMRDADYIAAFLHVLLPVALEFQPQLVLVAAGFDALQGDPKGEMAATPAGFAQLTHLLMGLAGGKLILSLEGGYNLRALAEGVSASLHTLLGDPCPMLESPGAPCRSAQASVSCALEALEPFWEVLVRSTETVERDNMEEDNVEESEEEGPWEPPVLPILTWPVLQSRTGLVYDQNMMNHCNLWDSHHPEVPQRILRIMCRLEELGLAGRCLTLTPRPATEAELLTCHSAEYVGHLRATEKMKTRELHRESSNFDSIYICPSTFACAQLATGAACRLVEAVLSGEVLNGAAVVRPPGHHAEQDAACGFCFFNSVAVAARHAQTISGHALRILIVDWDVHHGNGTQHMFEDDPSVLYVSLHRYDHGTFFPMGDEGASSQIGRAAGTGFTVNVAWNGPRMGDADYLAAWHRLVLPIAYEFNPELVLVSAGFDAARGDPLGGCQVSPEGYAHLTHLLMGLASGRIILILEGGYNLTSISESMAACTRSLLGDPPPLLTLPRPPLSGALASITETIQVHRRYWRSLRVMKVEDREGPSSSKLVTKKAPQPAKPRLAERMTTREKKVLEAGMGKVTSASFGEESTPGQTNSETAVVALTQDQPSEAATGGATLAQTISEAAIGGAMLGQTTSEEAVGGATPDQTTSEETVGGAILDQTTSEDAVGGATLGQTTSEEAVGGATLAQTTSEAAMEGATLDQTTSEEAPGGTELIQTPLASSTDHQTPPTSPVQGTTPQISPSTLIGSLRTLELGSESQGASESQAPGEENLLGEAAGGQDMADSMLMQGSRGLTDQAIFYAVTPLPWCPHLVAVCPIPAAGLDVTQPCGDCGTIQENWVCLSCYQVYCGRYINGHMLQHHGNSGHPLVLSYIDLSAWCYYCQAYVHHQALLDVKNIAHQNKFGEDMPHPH", "experiment": "In vitro HDAC isoform inhibition, purified recombinant HDAC6", "type": "biochemical", "text": "as §1"}, "HDAC8": {"target": "HDAC8 (Homo sapiens, UniProt Q9BY41)", "sequence (Q9BY41 whole entry, species assumed)": "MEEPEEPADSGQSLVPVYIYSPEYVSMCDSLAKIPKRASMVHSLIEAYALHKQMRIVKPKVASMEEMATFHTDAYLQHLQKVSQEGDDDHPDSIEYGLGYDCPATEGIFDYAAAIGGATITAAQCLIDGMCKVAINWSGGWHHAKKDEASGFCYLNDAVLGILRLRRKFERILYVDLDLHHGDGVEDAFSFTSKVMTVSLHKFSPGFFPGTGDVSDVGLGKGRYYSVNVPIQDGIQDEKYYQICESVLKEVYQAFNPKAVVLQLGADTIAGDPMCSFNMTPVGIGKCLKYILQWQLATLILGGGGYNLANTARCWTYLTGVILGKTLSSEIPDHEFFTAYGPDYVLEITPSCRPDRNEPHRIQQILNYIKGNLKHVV", "experiment": "HDAC8 activity inhibition (data not shown)", "type": "biochemical"}, "HDAC5": {"target": "HDAC5 (Homo sapiens, UniProt Q9UQL6)", "sequence (Q9UQL6 whole entry, species assumed)": "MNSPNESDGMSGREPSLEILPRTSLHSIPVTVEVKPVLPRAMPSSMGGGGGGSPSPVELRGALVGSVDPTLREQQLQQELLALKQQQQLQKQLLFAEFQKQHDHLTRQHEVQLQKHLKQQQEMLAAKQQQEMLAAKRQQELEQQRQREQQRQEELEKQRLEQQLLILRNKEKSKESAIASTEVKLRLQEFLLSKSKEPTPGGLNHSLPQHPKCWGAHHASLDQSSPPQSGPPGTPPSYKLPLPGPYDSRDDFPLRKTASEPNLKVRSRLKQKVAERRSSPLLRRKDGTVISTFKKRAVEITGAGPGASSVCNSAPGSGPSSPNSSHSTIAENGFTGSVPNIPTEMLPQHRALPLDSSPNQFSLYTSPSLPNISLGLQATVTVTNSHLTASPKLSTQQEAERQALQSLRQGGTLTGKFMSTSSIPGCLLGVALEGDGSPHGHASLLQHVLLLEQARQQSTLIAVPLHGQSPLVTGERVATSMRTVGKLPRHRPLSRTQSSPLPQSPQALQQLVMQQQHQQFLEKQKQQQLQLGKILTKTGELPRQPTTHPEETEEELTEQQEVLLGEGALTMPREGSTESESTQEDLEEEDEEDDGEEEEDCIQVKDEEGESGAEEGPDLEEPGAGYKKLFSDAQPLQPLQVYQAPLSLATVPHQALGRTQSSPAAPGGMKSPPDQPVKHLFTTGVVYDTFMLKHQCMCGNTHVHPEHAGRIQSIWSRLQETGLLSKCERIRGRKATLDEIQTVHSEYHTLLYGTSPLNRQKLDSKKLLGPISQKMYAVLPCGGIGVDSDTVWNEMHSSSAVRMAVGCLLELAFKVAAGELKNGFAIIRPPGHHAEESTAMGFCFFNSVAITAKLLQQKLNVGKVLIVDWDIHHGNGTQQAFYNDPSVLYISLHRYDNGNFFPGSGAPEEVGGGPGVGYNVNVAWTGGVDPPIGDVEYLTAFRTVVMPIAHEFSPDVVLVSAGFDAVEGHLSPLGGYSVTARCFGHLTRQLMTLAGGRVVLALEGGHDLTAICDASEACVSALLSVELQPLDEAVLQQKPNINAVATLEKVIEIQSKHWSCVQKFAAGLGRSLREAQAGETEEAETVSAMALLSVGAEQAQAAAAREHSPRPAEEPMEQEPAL", "experiment": "HDAC5 activity inhibition (data not shown)", "type": "biochemical", "details": "read-out: IC50 class IIa HDAC5 inhibition"}, "MCF7 (ER+) cells": {"test_system": "MCF7 (ER+) cells", "experiment": "Cell growth inhibition (CCK8 cytotoxicity assay), MCF7", "type": "cell-based", "details": "Homo sapiens, 48 h treatment, read-out: Average EC50 ± SD, cell growth inhibition"}, "MCF7 cells": {"test_system": "MCF7 cells", "experiment": "Radiation clonogenic survival assay, MCF7", "type": "cell-based", "details": "0.3 μM for 24 h then graded γ-radiation, DMSO control 1.5 Gy", "method": "Logarithmically growing cells were treated with vehicle (0.1% Dimethyl Sulfoxide) or SP-1-303 (0.3 μM) for 24 h followed by sham or γ-radiation using a Mark-30 irradiator with a 137Cs source at a fixed dose rate of 2.71 Gy/min. Cells were exposed to graded doses at room temperature. After 10–14 days, cells were fixed and stained with crystal violet, and colonies were counted. The surviving fractions of treated cells were normalized using the plating efficiencies of untreated controls. Radiation survival curves were generated by fitting to the single-hit, multitarget model."}, "ER-α": {"test_system": "ER-α", "experiment": "Western blot of nuclear extracts, ER-α expression", "type": "cell-based", "details": "MCF7; 1 μM; from 2h to 6h", "text": "(§2) Following treatment of cells with SP-1-303 over a time course, total or nuclear proteins were extracted and analyzed on 4–20% trisglycine gradient sodium dodecyl sulfate polyacrylamide gel electrophoresis (SDS-PAGE). Subsequently, membranes were probed with antibodies targeting specific proteins in accordance with the manufacturers’ protocols, including ATM (ab78), p-BRCA1 (ab90528), BRCA1 (ab191042), p-p53/S15 (ab1431), acetylated H3K9 (ab12179) from Abcam, as well as p-ATM (# 5883) and p53 (#9282) from Cell Signaling, α-tubulin (T6793) and β-actin (A3854) from Sigma-Aldrich, ER-α (cat# MA1-80216, Invitrogen) and HDAC2 (BML-SA402. Enzo). Protein images were captured using ECL Prime Western Blotting Detection Reagents (Cat#. RPN2232, Amersham) and the Amersham Imager 600. For immunofluorescent analysis, formalin fixed cells were permeabilized with 0.1% Triton X-100 in TBS for 10 minutes at room temperature, followed by blocking with 1% Blocker BSA for 15 minutes at room temperature. Cells were then probed with a phospho-ATM monoclonal antibody (MA5-15185) and DyLight 488 goat anti-mouse IgG secondary antibody at room temperature. Actin was stained with DyLight 554 phalloidin, while nuclei were stained with 4’,6-diamidino-2-phenylindole dye (DAPI). Images were captured using a Nikon Epi Fluorescent microscopy."}, "phosphorylated BRCA1": {"test_system": "phosphorylated BRCA1", "experiment": "Western blot, phosphorylated BRCA1", "type": "cell-based", "details": "1 μM", "text": "as §2"}},
  "data": [
    {"compound": "Cc1[nH]c2ccccc2c1C1=C(c2c(C)[nH]c3ccccc23)C(=O)N(CCCCCCC(=O)NO)C1=O", "note": "[SP-1-303]", "values": [
      {"measurement": "IC50", "setting": "[1]", "value": "120 ± 58", "unit": "nM"},
      {"measurement": "IC50", "setting": "HDAC3", "value": "14 ± 2", "unit": "nM"},
      {"measurement": "ratio of inhibitory concentrations for HDAC6 to HDAC1", "setting": "HDAC6", "value": 36, "unit": "fold"},
      {"measurement": "IC50", "setting": "HDAC6; purified recombinant protein, ± margin of error of 95% confidence interval, read-out: IC50 HDAC inhibition activity in vitro, HDAC 6", "value": "435 ± 35", "unit": "nM"},
      {"measurement": "Ratio (HDAC6:HDAC1)", "setting": "HDAC6; ratio of IC50 values", "value": 36},
      {"measurement": "IC50", "setting": "HDAC8", "value": 310, "unit": "nM"},
      {"measurement": "IC50", "setting": "HDAC5", "value": "> 20000", "unit": "nM"},
      {"measurement": "EC50", "setting": "MCF7 (ER+) cells", "value": "340 ± 122", "unit": "nM"},
      {"measurement": "D0, radiation clonogenic survival", "setting": "MCF7 cells", "value": 1.3, "unit": "Gy"},
      {"measurement": "ER-α expression", "setting": "ER-α", "value": "gradual reduction"},
      {"measurement": "phosphorylated BRCA1", "setting": "phosphorylated BRCA1; MCF7, within 1h to 2h", "value": "induction"},
      {"measurement": "phosphorylated BRCA1", "setting": "phosphorylated BRCA1; MDA-MB-231", "value": "without significant alteration"}
    ]}
  ]
}
